Results published in article PMC9186373, “Design, synthesis, and biological evaluation of novel carbazole derivatives as potent DNMT1 inhibitors with reasonable PK properties” (Journal of Enzyme Inhibition and Medicinal Chemistry, 2022).
Read-outs that look alike come from different tables or passages of the source.

How the values were obtained:
[1] = system: A549 (human lung cancer cells); test: MTT assay, A549; format: cell-based
Experimental: (§1) The human lung cancer cells (A549) and human colon cancer cells (HCT116) were cultured in an RPMI-1640 medium containing 10% FBS, 100 U/mL streptomycin, and 100 U/mL penicillin at 37 °C in a humidified atmosphere with 5% CO2. All compounds were dissolved in DMSO and stock solutions were stored at −20 °C. Reagents were freshly diluted to the marked concentrations with a culture medium before use. DMSO concentration in experimental conditions never exceeded 0.1% (v/v). All cell lines were provided by the cell laboratory, School of pharmaceutical sciences, Guangzhou Medical University.
(§2) Cell viability was detected using an MTT assay kit. Cells were seeded into 96-well plates at a density of ∼1.0 × 10^4/well. 24 h later, sextuplicate wells were treated with media and new compounds at a fixed concentration (50 µM). After 24, 48, and 72 h, the drug-containing medium was replaced by a 100 µL fresh medium with 5 mg/mL MTT solution. After 4 h of incubation, the medium with MTT was removed, and 100 µL of DMSO was added to each well. The plates were gently agitated until the purple formazan crystals were dissolved, and the OD490 was determined using a […] (Olympus BX53, Japan). The data were calculated and plotted as the percent viability compared to the control.

DNMT3B/3L = test: Methyltransferase enzymatic selectivity profiling, DNMT3B/3L; format: biochemical; conditions: 50 µM; for inhibitory activity against DNMT3B/3L: Figure 3; for Relative selectivity index of DNMT1 vs DNMT 3B/3L: 1 - selected enzyme inhibition/DNMT1 inhibition
Experimental: (§3) In addition to DNMT1, there are many other methyltransferases that can bind with S-adenosyl-L-methionine (SAM) to facilitate transmethylation reactions[24]^,[25]. To investigate the selectivity of these potent compounds for DNMT1, we then evaluated the inhibitory activities against DNMT1 and other important methyltransferases at the concentration of 50 µM, including DNMT3A/3L, DNMT3B/3L, and other SAM-dependent enzymes[1]^,[2]^,[26], such as EZH2[27], LSD1[28], G9a (histone H3 lysine 9 methyltransferase)[29].
(§4) Here, the selectivity of non-nucleoside DNMT1 inhibitors is somewhat predictable because other methyltransferases mentioned above catalyse different substrates and share very low homology with DNMT1, even in their catalytic domain[30–32]. Subsequently, the screened compounds were evaluated in a dose-dependent assay against HCT116 (human colon cancer cell line) and A549 (human lung carcinoma cell line).
(§5) 493 Relative selectivity index
(§6) 494 Relative selectivity index of DNMT1 is calculated by formula: DNMT1-selectivity
(§7) 495 index =1 - selected enzyme inhibition/DNMT1 inhibition. The closer
(§8) 496 that this value is to 1 or even more than 1, the better DNMT1-selectivity the of the
(§9) 498 Table S1. Relative selectivity index of DNMT1
Cpd. […]

LSD1 = test: Methylation inhibition assay (AlphaLisa), LSD1; format: biochemical; conditions: 1 - selected enzyme inhibition/DNMT1 inhibition; 50 µM
Experimental: (§10) All the compounds were first screened using an ELISA EpiQuik DNA methyltransferase (DNMT) activity/inhibitor assay kit (Epigentek). To measure the effects of the compounds on human DNMT1 activity, 200 nM purified DNMT1 was incubated with 50 µM and 100 µM of the different compounds and S-adenosylmethionine in the DNMT assay buffer in the assay plate at 37 °C for 2 h[36]. Next, every sample was incubated with the capture and detection antibody, followed by incubation with developer solution for 10 min at room temperature. The absorbance was measured at 450 nm using a POLARstar Omega microplate reader (BMG). S-Adenosylhomocysteine (AdoHcy) was used as a positive control. Methylation inhibition assays for EZH2, LSD, and G9a were performed in modified Tris, pH 9.0, buffer using AlphaLisa technology. An amount of 10 µL of the reaction system contained a corresponding concentration of SAM (Sigma) (EZH2 50 µM, LSD 50 µM, and G9a 50 µM), which was the Km value in each enzymatic reaction, plus 100 nM biotinylated peptide H3 (1–21) (synthesis by GLChina) and the relevant enzyme concentration (0.03 nM EZH2, 0.03 nM LSD, and 0.03 nM G9a). The proteins were preincubated with various compound concentrations for 15 min at room temperature before the substrate and SAM were added. After 60 min of incubation at room temperature, acceptor and donor AlphaLisa beads were added according to the manufacturer’s recommendations. The signals were read in Alpha mode with an EnSpire multimode plate reader (PerkinElmer). IC50 values were derived by fitting the data for the inhibition percentage to a dose-response curve by non-linear regression in GraphPad Prism 5.0[20].
as §3, §5, §6, §7, §8, §9
Cpd. […]

DNMT1 = DNMT1 (Homo sapiens, UniProt P26358); test: H3-labelled radioactive methylation assay; format: biochemical; conditions: H3-labeled radioactive methylation assay; 40 nM DNMT1
Chain of DNMT1 (P26358 whole entry): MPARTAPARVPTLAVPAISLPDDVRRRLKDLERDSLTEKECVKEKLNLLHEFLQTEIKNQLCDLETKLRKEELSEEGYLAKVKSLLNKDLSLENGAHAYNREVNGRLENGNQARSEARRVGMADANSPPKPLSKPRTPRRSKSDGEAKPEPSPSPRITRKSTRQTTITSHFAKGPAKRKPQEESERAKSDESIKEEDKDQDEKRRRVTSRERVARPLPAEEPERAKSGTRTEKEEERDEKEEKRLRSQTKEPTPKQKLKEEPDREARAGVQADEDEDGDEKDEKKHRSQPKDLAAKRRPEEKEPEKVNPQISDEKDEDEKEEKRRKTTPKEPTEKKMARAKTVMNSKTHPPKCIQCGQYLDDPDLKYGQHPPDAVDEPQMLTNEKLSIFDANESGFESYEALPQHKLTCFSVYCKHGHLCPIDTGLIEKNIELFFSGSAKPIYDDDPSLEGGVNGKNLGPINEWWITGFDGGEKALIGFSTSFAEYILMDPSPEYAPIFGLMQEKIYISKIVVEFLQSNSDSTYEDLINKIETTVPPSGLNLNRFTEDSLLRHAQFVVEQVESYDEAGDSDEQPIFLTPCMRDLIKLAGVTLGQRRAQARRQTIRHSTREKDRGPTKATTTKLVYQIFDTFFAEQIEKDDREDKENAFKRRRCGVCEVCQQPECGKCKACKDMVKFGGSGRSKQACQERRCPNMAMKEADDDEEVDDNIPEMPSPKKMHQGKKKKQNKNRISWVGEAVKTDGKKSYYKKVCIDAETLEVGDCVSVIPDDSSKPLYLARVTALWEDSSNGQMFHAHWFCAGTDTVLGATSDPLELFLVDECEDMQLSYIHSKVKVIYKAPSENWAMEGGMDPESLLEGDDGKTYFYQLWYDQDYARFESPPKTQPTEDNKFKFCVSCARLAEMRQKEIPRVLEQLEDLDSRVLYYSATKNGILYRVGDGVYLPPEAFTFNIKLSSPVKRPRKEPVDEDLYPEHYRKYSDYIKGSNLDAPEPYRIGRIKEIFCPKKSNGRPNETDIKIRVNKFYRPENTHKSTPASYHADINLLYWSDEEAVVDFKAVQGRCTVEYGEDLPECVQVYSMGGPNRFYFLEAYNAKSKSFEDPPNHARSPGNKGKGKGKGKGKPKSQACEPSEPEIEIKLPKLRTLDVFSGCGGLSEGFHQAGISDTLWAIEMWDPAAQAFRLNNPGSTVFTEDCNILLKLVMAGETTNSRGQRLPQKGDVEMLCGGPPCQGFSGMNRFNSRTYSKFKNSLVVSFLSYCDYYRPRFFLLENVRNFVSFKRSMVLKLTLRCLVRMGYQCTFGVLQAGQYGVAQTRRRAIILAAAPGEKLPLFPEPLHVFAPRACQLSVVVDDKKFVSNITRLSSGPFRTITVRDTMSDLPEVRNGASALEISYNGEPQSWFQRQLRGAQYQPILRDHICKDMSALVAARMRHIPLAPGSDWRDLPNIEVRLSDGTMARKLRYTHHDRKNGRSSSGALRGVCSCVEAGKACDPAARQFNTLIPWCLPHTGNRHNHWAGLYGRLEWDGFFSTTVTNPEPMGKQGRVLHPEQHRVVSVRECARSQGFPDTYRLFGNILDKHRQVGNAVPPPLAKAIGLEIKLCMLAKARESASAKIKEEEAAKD
Experimental: The DNMT1 radioactive methylation inhibition assays were performed in 30 µL reactions containing 0.1 µM adenosyl-L-methionine S-[methyl-^3H] (^3H-SAM, ^15 Ci/mmol, PerkinElmer), 0.25 µg/mL poly (dI-dC)·poly (dI-dC) (Sigma), 40 nM DNMT1 in 50 mM Tris-HCl, pH 8.0, 1 mM DTT, 5% glycerol, and 100 µg/mL BSA. The proteins were preincubated with a range of compound concentrations for 15 min at room temperature before adding the substrate and [^3H] SAM. After 60 min of incubation at 37 °C, the reaction systems were transferred to a MultiScreen HTS filter plate (Millipore), and the plate was washed 3 times with doubly distilled H2O via a vacuum. The radioactivity was determined by liquid scintillation counting (MicroBeta, PerkinElmer). IC50 values were derived by fitting the data for the inhibition percentage to a dose-response curve by non-linear regression in GraphPad Prism 5.0.
To quantitatively analyse DNMT1 inhibitory effect, the H^3-labelled radioactive methylation assay was conducted to measure the methyltransferase activity of DNMT1 at a range of concentrations for these compounds.

[2] = system: HCT116 (human colon cancer cells); test: MTT assay, HCT116; format: cell-based
Experimental: as §1, §2

EZH2 = test: Methylation inhibition assay (AlphaLisa), EZH2; format: biochemical; conditions: 50 µM; for inhibitory activity against EZH2: Figure 3; for Relative selectivity index of DNMT1 vs EZH2: 1 - selected enzyme inhibition/DNMT1 inhibition
Experimental: as §10, §3, §5, §6, §7, §8, §9
Cpd. […]

DNMT3A/3L = test: Methyltransferase enzymatic selectivity profiling, DNMT3A/3L; format: biochemical; conditions: 1 - selected enzyme inhibition/DNMT1 inhibition; 50 µM
Experimental: as §3, §4, §5, §6, §7, §8, §9
Cpd. […]

[3] = system: G9a (histone H3 lysine 9 methyltransferase); test: Methylation inhibition assay (AlphaLisa), G9a; format: biochemical; conditions: 50 µM; for inhibitory activity against G9a: Figure 3; for Relative selectivity index of DNMT1 vs G9a: 1 - selected enzyme inhibition/DNMT1 inhibition
Experimental: as §10, §3, §5, §6, §7, §8, §9
Cpd. […]

human DNMT1 = test: ELISA EpiQuik DNA methyltransferase (DNMT) activity/inhibitor assay; format: biochemical; conditions: 200 nM purified DNMT1, EpiQuik kit; for Inh% at 50 μM: 50 μM compound; for Inh% at 100 μM: 100 μM compound
Experimental: as §10
DNMT1 inhibition test was performed on 30 candidates to verify their biochemical activities. The EpiQuik DNA methyl-transferase (DNMT) activity/inhibitor assay kit (Epigentek) was used to identify the activity of synthetic compounds.

[4] = 24 h, read-out: Inh % at 50 μM, A549, 24 h
[5] = 48 h, read-out: Inh % at 50 μM, A549, 48 h
[6] = 72 h, read-out: Inh % at 50 μM, A549, 72 h
[7] = HCT-116, 24 h, read-out: Inh % at 50 μM, HCT116, 24 h
[8] = HCT-116, 48 h, read-out: Inh % at 50 μM, HCT116, 48 h
[9] = HCT-116, 72 h, read-out: Inh % at 50 μM, HCT116, 72 h

`OC(CNCCc1c[nH]c2ccccc12)Cn1c2ccccc2c2cc(F)ccc21` (stereo not shown) [WK-1, 1-((2-(1H-indol-3-yl)ethyl)amino)-3-(3-fluoro-9H-carbazol-9-yl)propan-2-ol] showed an inhibition at 50 µM [1, 4] of 88.2%, an inhibition at 50 µM [1, 5] of 78.6% and an inhibition at 50 µM [1, 6] of 87.6%. The “inhibitory activity against DNMT3B/3L” value (DNMT3B/3L) was “hardly any inhibitory activities”, the “Relative selectivity index of DNMT1 vs DNMT 3B/3L” value (DNMT3B/3L) was 1.15 and the “Relative selectivity index of DNMT1 vs LSD1” value (LSD1) was 0.18. The IC50 (DNMT1) was 28 µM, the melting point was 137 to 139 °C and the inhibition at 50 µM [2, 7] was 90.9%. For the same compound, the inhibition at 50 µM [2, 8] was 88%, the inhibition at 50 µM [2, 9] was 94.9% and the “inhibitory activity against EZH2” value (EZH2) was “hardly any inhibitory activities”. The “Relative selectivity index of DNMT1 vs EZH2” value (EZH2) was 0.93, the “Relative selectivity index of DNMT1 vs DNMT 3A/3L” value (DNMT3A/3L) was 0.49 and the “inhibitory activity against G9a” value [3] was “hardly any inhibitory activities”. The “Relative selectivity index of DNMT1 vs G9a” value [3] was 0.84, the “Inh% at 50 μM” value (human DNMT1) was 82% and the “Inh% at 100 μM” value (human DNMT1) was 100%.
For `OC(CNCCc1c[nH]c2ccccc12)Cn1c2ccc(F)cc2c2cc(F)ccc21` (stereo not shown) [WK-12, 1-((2-(1H-indol-3-yl)ethyl)amino)-3-(3,6-difluoro-9H-carbazol-9-yl)propan-2-ol], the inhibition at 50 µM [1, 4] was 59.9%, the inhibition at 50 µM [1, 5] was 80.1% and the inhibition at 50 µM [1, 6] was 84.7%. For the same compound, the “inhibitory activity against DNMT3B/3L” value (DNMT3B/3L) was “hardly any inhibitory activities”, the “Relative selectivity index of DNMT1 vs DNMT 3B/3L” value (DNMT3B/3L) was 1.09 and the “Relative selectivity index of DNMT1 vs LSD1” value (LSD1) was 0.23. It also gave an IC50 (DNMT1) of 17 µM, a melting point of 130 to 132 °C and an inhibition at 50 µM [2, 7] of 77.7%. The inhibition at 50 µM [2, 8] was 88.8%, the inhibition at 50 µM [2, 9] was 96.7% and the “inhibitory activity against EZH2” value (EZH2) was “hardly any inhibitory activities”. The “Relative selectivity index of DNMT1 vs EZH2” value (EZH2) was 0.91, the “Relative selectivity index of DNMT1 vs DNMT 3A/3L” value (DNMT3A/3L) was 0.67 and the “inhibitory activity against G9a” value [3] was “hardly any inhibitory activities”. For the same compound, the “Relative selectivity index of DNMT1 vs G9a” value [3] was 0.93, the “Inh% at 50 μM” value (human DNMT1) was 99% and the “Inh% at 100 μM” value (human DNMT1) was 94%.
For `Oc1ccc(CCNCC(O)Cn2c3ccc(F)cc3c3cc(F)ccc32)cc1` (stereo not shown) [WK-13, 4-(2-((3-(3,6-Difluoro-9H-carbazol-9-yl)-2-hydroxypropyl)amino)ethyl) phenol], the inhibition at 50 µM [1, 5] was 69.2%, the inhibition at 50 µM [1, 6] was 84.1% and the “inhibitory activity against DNMT3B/3L” value (DNMT3B/3L) was “hardly any inhibitory activities”. The “Relative selectivity index of DNMT1 vs DNMT 3B/3L” value (DNMT3B/3L) was 1.28, the “Relative selectivity index of DNMT1 vs LSD1” value (LSD1) was 0.33 and the IC50 (DNMT1) was 19 µM. It also gave a melting point of 143 to 145 °C, an inhibition at 50 µM [2, 8] of 86.3% and an inhibition at 50 µM [2, 9] of 93.2%. The “inhibitory activity against EZH2” value (EZH2) was “hardly any inhibitory activities”, the “Relative selectivity index of DNMT1 vs EZH2” value (EZH2) was 1.01 and the “Relative selectivity index of DNMT1 vs DNMT 3A/3L” value (DNMT3A/3L) was 0.68. The “inhibitory activity against G9a” value [3] was “hardly any inhibitory activities”, the “Relative selectivity index of DNMT1 vs G9a” value [3] was 0.91 and the “Inh% at 50 μM” value (human DNMT1) was 82%. The “Inh% at 100 μM” value (human DNMT1) was 90%.
`CC(CO)NCC(O)Cn1c2ccc(F)cc2c2cc(F)ccc21` (stereo not shown) [WK-19, 2-((3-(3,6-Difluoro-9H-carbazol-9-yl)-2-hydroxypropyl)amino)propan-1-ol] showed an inhibition at 50 µM [1, 4] of 7.9%, an inhibition at 50 µM [1, 5] of 68.4% and an inhibition at 50 µM [1, 6] of 79.9%. The “Relative selectivity index of DNMT1 vs DNMT 3B/3L” value (DNMT3B/3L) was 1.29, the “Relative selectivity index of DNMT1 vs LSD1” value (LSD1) was 0.29 and the IC50 (DNMT1) was 9.2 µM. For the same compound, the melting point was 136 to 138 °C, the inhibition at 50 µM [2, 7] was 5.6% and the inhibition at 50 µM [2, 8] was 59.4%. The inhibition at 50 µM [2, 9] was 88.3%, the “Relative selectivity index of DNMT1 vs EZH2” value (EZH2) was 1.01 and the “Relative selectivity index of DNMT1 vs DNMT 3A/3L” value (DNMT3A/3L) was 0.67. The “Relative selectivity index of DNMT1 vs G9a” value [3] was 0.91, the “Inh% at 50 μM” value (human DNMT1) was 78% and the “Inh% at 100 μM” value (human DNMT1) was 93%.
